Here are results for twelve molecules from US20050171342A1, “Conjugates of biologically active compounds, methods for their preparation and use, formulation and pharmaceutical applications thereof” (priority 2002, published 2005).

Like-named read-outs stand apart in the source and are kept apart here.

In data set [1] the test system is white blood cells (immune cells: neutrophils, monocytes, lymphocytes) versus erythrocytes. Description: Immune cell partition / concentrative uptake into white blood cells (immune selectivity ratio). It is filed as in vitro ADME, mammalian.
Procedure: Freshly drawn heparinised blood or buffy coat preparations are used for the determination of immune cell partition ratios. Buffy coat preparations are preferred. These may be obtained from donor blood by simple centrifugation of whole blood (4795 g for 10 minutes). Following centrifugation, plasma is collected from the surface, after which immune cells are expressed from the donor bags along with the erythrocytes lying immediately below the leukocyte layer. This ensures high yields and a sufficient population of erythrocytes for partition. 5 ml of the resulting cell suspension are dispensed into T25 culture flasks. Substrates are added to a final concentration between 1 and 10 μM and the suspensions incubated at 37° C., in a 5% CO2 atmosphere. For analysis of uptake kinetics, samples are withdrawn at 0, 2, 5, 10, 30, 60, 90, 180, or 240 min after substrate addition. For screening purposes, samples are taken at 0 and 120 minutes.
Cell fractions were prepared using density gradient centrifugation. […]
Uptake of fluorescent compounds is monitored using fluorescence microscopy. Excitation and emission wavelengths depend of the fluorescence label in use. […]
In a further data set the test system is E. coli (DH5α). Description: Testing of antibiotic activity (TC50, antibiotic dilution assay, turbidity). The note with it: concentration that inhibits 50% of the growth. It is filed as cell-based. How it is done:
The TC50 or MIC procedure for antibiotic sensitivity testing involves an antibiotic dilution assay, which can be performed in microtitre plates. A series of twofold dilutions of each antibiotic are made in the wells, and then all wells are inoculated with a standard amount of the same test organism. After incubation, growth in the presence of the various antibiotics is observed by measuring turbidity.
Bacteria: B. pumilus and E. coli (DH5α)
Bacterial cultures are initiated from the plates for 2 to 3 weeks. After this time period bacteria are streaked out on new plates from the backups strored at −80° C. Due to the lack of resistance of the bacteria, new cultures are not to be initiated from an old plate or any liquid cultures derived from old plates. • Growth medium (GM)(per liter): 10 g Bacto-tryptone, 5 g Bacto-yeast extract, 6 g HEPES (25 mM), 5.4 g NaCl, pH 7.3 • Compound stocks 10 or 100 mM in DMSO stored at −20° C. Procedure • 1. Grow B. pumilus from an LB agar plate in a flask (max. 10% volume) up to about 50 ml in growth medium (GM) • 2. Dilute overnight suspension 1:10 in GM • 3. Determine OD600 of diluted bacterial suspension • 4. Dilute bacterial suspension in GM to an OD600 of 0.03-0.04. (6 ml/plate) • 5. Add 200 μl GM to the outer wells (Row A, Row H, Column 1, Column 12) • 6. Add 100 μl GM to each well starting from C2, row 3. • 7. Controls: Wells B2-B4 growth control. Wells B6-B8 blank. Row C growth inhibition control. • 7.1. To wells B2-B4 add: […], 4 μl DMSO, and 100 μl bacterial suspension adjusted to an OD600 of 0.03-0.04. • 7.2. To wells B6-B8 add: 196 μl GM and 4 μl DMSO • 7.3. Dilute a 10 mM COMPOUND 43 (positive control) stock to 800 μM (120 μl/plate) in GM. Add 100 μl of 800 μM COMPOUND 43 solution to well C2. • 8. Samples • 8.1. Dilute the 10 or 100 mM stock solutions to 800 μM (250 μl/plate) in GM. • 8.2. Add 100 μl of 800 μM sample in duplicates to wells D2/E2 resp. F2/G2. • 8.3. 2-fold serial dilution of all samples and Azithromycin • 8.3.1. […]
11. Determine OD600 on plate reader.

For a further data set, the system named is lymphocytes. The data set is described as follows: Proliferation assay (BrdU incorporation, phytohemagglutanin-stimulated lymphocytes). It is filed as cell-based, mammalian. The following applies: for IC50: Lymphocyte; for Ratio (2 h:72 h): ratio of IC50 at 2 h to IC50 at 72 h, lower = better uptake and drug release. The text has this:
Assay to determine the in vitro rate of, for example, lymphocyte proliferation. Lymphocytes are purified out of ant coagulated (CPDA, citrate or heparin) mammalian blood using the Lymphoprep™ system (supplier). Purified cells are counted using a hemocytometer following Trypan Blue staining, and a cell concentration of 1×10^6 cells/ml established in RPMi 1640 medium with 10% FCS and antibiotics as required (all from Biochrome). Following the addition of a cell proliferation stimulant, for example phytohemagglutanin (Sigma) at, for example an end concentration of 5 μg/ml, the cells are incubated with different concentrations of the to be investigated compound in 100 μl end volume in a 96-well microtiter plate in an incubator (37° C., 5% CO2, 95% humidity) for 72 h. Cell proliferation is quantified following BrdU incorporation for 16 h by ELISA and subsequent colorimetric development (Cell Proliferation ELISA BrdU (colorimetric) kit from Roche Diagnostics). The IC50 (μM) values are then calculated, and used to compare compound efficacy. To determine the influence of the T-L-C modification on in vitro cellular drug uptake and pharmacology, the above assay is additionally modified and an additional “wash” step included. In addition to running the assay for 72 h with the compounds to be tested, the assay is also run for just 2 h, then compound is washed away in three serial washing steps using 200 μl of medium at each step, and the cells subsequently incubated for a further 70 h. […] The lower the number, the better the uptake and drug release from the T-L-C in the cells (see results in Table 4 for examples), and improvement over mycophenolic acid.

In a further data set the test system is HeLa or JURKAT. Description: Cytotoxicity assay (Alamar Blue) with guanosine rescue, cell-based IMPDH assay. Here is the method: HeLa cells (DSMZ, ACC 57) and Jurkat cells (DSMZ, ACC 282) in exponential growth phase are exposed for 3 days to test compounds. The number of surviving cells is then determined by the Alamar Blue assay (Serotec Inc.). This assay incorporates a fluorometric growth indicator based on detection of metabolic activity. Specifically, the system incorporates an oxidation-reduction indicator that fluoresces in response to chemical reduction of the growth medium resulting from cell growth. As cells grow in culture, innate metabolic activity results in a chemical reduction of the immediate surrounding environment. Continued growth maintains a reduced environment while inhibition of growth maintains an oxidized environment. […] Fluorescence is monitored at 560 nm (Exc.) and 590 nm Em.
HeLa cells (1×10^3) or JURKAT cells (1×10^3) are plated in 100 μl MEM medium (with Earle's salt; Biochrom KG) containing 10% FBS, 2 mM L-glutamine, and non-essential animo acids in 96-well plates and incubated at 37° C. and 5% CO2 atmosphere. […] The fluorescence is then measured as described above and the LD50 is determined based on a sigmoidal dose response regression. […] Any toxicity still detected can then be ascribed either to other biological effects of the of T-L-C conjugate of mycophenolic acid, or is due to the very high intracellular concentration of mycophenolic acid, following concentrative uptake into the cell.
On the technique in general: Alamar Blue is a resazurin reagent that responds to reducing activity.

Where [2] appears, read: read-out: IC50 (μM) at 2 h, 2 h incubation, compound washed away, further 70 h incubation.
Where [3] appears, read: 72 h incubation with compound, read-out: IC50 (μM) at 72 h.

In the case of `CC[C@H]1OC(=O)[C@H](C)[C@@H](OC2C[C@@](C)(OC)[C@@H](O)[C@H](C)O2)[C@H](C)[C@@H](OC2O[C@H](C)C[C@H](N(C)C)[C@H]2O)[C@](C)(O)C[C@@H](C)/C(=N/OCc2cc(=O)oc3cc(OC)c(OC)cc23)[C@H](C)[C@@H](O)[C@]1(C)O` (stereo partly shown) [Compound 3], the intracellular distribution result in data set [1] (polymorphonuclear cells, fluorescent image (FIG. 3)) was “even distribution with some concentration near the nucleus”.

Take `COc1cc(C)c(/C(=C\C(C)=O)CC(N)C(=O)O)cc1OC` (stereo not shown) [Compound 4]: the “uptake (speed)” value in data set [1] (uptake into immune cells, images during course of uptake) is “rapid”.

For the molecule `CC[C@H]1OC(=O)[C@H](C)C(=O)[C@H](C)[C@@H](O[C@@H]2O[C@H](C)CC(N(C)C)[C@H]2O)[C@](C)(O)C[C@@H](C)CN(C)[C@H](C)[C@@H](O)[C@]1(C)O` (stereo partly shown) [Compound 40], the “TC50 in E. coli” value with E. coli (DH5α) is over 50000 nM.

As for `CC[C@H]1OC(=O)[C@H](C)[C@@H](O[C@H]2C[C@@](C)(OC)[C@@H](O)[C@H](C)O2)[C@H](C)[C@@H](O[C@@H]2O[C@H](C)C[C@H](N(C)C)[C@H]2O)[C@](C)(O)C[C@@H](C)CN(C)[C@H](C)[C@@H](O)[C@]1(C)O` [Compound 43, 9a-aza-9a-methyl-9-deoxo-9a-homoerythromycin A, reference compound], the “TC50 in E. coli” value in the data set on E. coli (DH5α) came out at 2300 nM.

For `CC[C@H]1OC(=O)[C@H](C)[C@@H](O[C@H]2C[C@@](C)(OC)[C@@H](O)[C@H](C)O2)[C@H](C)[C@@H](O[C@@H]2O[C@H](C)CC(N(C)C(=O)CN(C)CCO)[C@H]2O)[C@](C)(O)C[C@@H](C)CN(C)[C@H](C)[C@@H](O)[C@]1(C)O` (stereo partly shown) [Compound 45], the “TC50 in E. coli” value in the data set on E. coli (DH5α) was over 50000 nM.

Usually IC50 stands for the point on the concentration scale where inhibition reaches its midpoint. Take `CCOC(=O)CC/C(C)=C/Cc1c(OC)c(C)c2c(c1OC(=O)CCC(=O)O[C@@H]1C(N(C)C)C[C@@H](C)O[C@H]1O[C@@H]1[C@@H](C)[C@H](O[C@H]3C[C@@](C)(OC)[C@@H](O)[C@H](C)O3)[C@@H](C)C(=O)O[C@H](CC)[C@@](C)(O)[C@H](O)[C@@H](C)N(C)C[C@H](C)C[C@@]1(C)O)C(=O)OC2` (stereo partly shown) [Compound 69]: the IC50 with lymphocytes (setting [2]) was determined as 2.66 µM; with lymphocytes (setting [3]), 1.4 µM. In the data set with lymphocytes, the “Ratio (2 h:72 h)” value stood at 1.9.

For the molecule `CC[C@H]1OC(=O)[C@H](C)[C@@H](O)[C@H](C)[C@@H](O[C@@H]2O[C@H](C)C[C@@H](N(C)CCOC(=O)CC/C(C)=C/Cc3c(O)c4c(c(C)c3OC)COC4=O)[C@@H]2N(C)C)[C@](C)(O)C[C@@H](C)CN(C)[C@H](C)[C@@H](O)[C@]1(C)O` [Compound 74], the IC50 in the data set with lymphocytes (setting [2]) is 3.2 µM; with lymphocytes (setting [3]), 2.2 µM. The “Ratio (2 h:72 h)” value with lymphocytes is 1.45.

In the case of `CC[C@H]1OC(=O)[C@H](C)C(=O)[C@H](C)[C@@H](O[C@@H]2O[C@H](C)C[C@H](N(C)C)[C@H]2OC(=O)CC/C(C)=C/Cc2c(O)c3c(c(C)c2OC)COC3=O)[C@](C)(O)C[C@@H](C)CN(C)[C@H](C)[C@@H](O)[C@]1(C)O` [Compound 79], the IC50 with lymphocytes (setting [2]) was determined as 3.16 µM; in the data set with lymphocytes (setting [3]), 1.2 µM. The “Ratio (2 h:72 h)” value with lymphocytes is given as 2.63.

Take `CC[C@H]1OC(=O)[C@H](C)[C@@H](O[C@H]2C[C@@](C)(OC)[C@@H](O)[C@H](C)O2)[C@H](C)[C@@H](O[C@@H]2O[C@H](C)C[C@@H](OC(=O)CC/C(C)=C/Cc3c(O)c4c(c(C)c3OC)COC4=O)[C@@H]2N2CCOCC2)[C@](C)(O)C[C@@H](C)CN(C)[C@H](C)[C@@H](O)[C@]1(C)O` [Compound 80]: the IC50 with lymphocytes (setting [2]) was 1.41 µM; in the data set on lymphocytes (setting [3]), 0.4 µM. In addition, the “Ratio (2 h:72 h)” value in the data set on lymphocytes came to 3.53.

As to `COc1c(C)c2c(c(O)c1C/C=C(\C)CCC(=O)OC(COCCCCOCC(CN1CCOCC1)OC(=O)CC/C(C)=C/Cc1c(O)c3c(c(C)c1OC)COC3=O)CN1CCOCC1)C(=O)OC2` (stereo not shown) [Compound 81], the results for the IC50 with lymphocytes (setting [2]) and with lymphocytes (setting [3]) were 1.78 µM and 1.12 µM, respectively. Further, the “Ratio (2 h:72 h)” value in the data set with lymphocytes was found to be 1.6.

Regarding `COc1c(C)c2c(c(O)c1C/C=C(\C)CCC(=O)OCCN1CCOCC1)C(=O)OC2` [Mycophenolate mofetil, reference compound], the IC50 in the data set with lymphocytes (setting [2]) is 1.5 µM; with lymphocytes (setting [3]) it was 0.33 µM. Also, in the data set with lymphocytes, the “Ratio (2 h:72 h)” value is 4.5.

As to `COc1c(C)c2c(c(O)c1C/C=C(\C)CCC(=O)O)C(=O)OC2` [Mycophenolic acid, reference compound], the IC50 in the data set with lymphocytes (setting [2]) is 2.5 µM; with lymphocytes (setting [3]), 0.54 µM; in the data set with HeLa or JURKAT (normal culture conditions, HeLa or JURKAT), under 2000 nM. In addition, in the data set on lymphocytes, the “Ratio (2 h:72 h)” value came to 4.63. Besides, the “effect in the presence of guanosine” value in the data set with HeLa or JURKAT (50 μM guanosine) is on record as “completely removed”.
